Measurements published in patent publication US7488712B2, “Histone deacetylase inhibitors and methods for producing the same” (Kyushu Institute of Technology, priority 2002, dated 2009).
*1 amine or outer side, *2 acyl side, *3 side chain or, on linkers, in order; H or OH if unused. Where a SMILES comes first, the peptide text is derived from it. Bridges are numbered along the chain shown (N, C = ends). Roman numbers before positions name the chains, in order. [ ]: non-standard residue; d: D form. The star is where a group is joined. hNle(7-SH) = O=C([C@H](CCCCCS[*:3])N[*:1])[*:2]; X1 = CN(C)C(=O)c1cc(S*)ccc1[N+](=O)[O-]; Pip = O=C(O)[C@@H]1CCCCN1; dPip = O=C(O)[C@H]1CCCCN1

Tests used:
[1] = tested on: human wild-type p21 promoter; assay: p21 promoter-inducing activity (luciferase) in MFLL-9 cells; format: cell-based
Description: The HDAC inhibition activity in vivo was measured using p21 promoter-inducing activity as an index, as shown below. The MFLL-9 cells employed for the experiments stably maintained fusion genes of human wild-type p21 promoter and luciferase (Dr. B. Vogelstaein). Using phenol red-free DMEM medium comprising 10% FBS, cultivation was carried out in a steam-saturated incubator at 37° C. with 5% carbon dioxide. The MFLL-9 cells were plated at a density of 85,000 cells/well on a 96-well microtiter plate, each in 99 μl of the above-mentioned medium. These were then cultivated for six hours. One μl of test compound solution was added to each well, which was then cultured for another 18 hours.
The intensity of luminescence caused by the product of the enzyme reaction for intracellular luciferase expression was measured using Luc Lite (Packard BioScience Company). A group in which test compounds were not added was used as a negative control group. The values measured for this group were used as a standard. The activities for each concentration of added test compound were expressed relative to the above-mentioned standard value, 1.

human HDAC4 = target: T1, human HDAC4 (Homo sapiens, UniProt P56524); assay: In vitro HDAC inhibition activity, [3H]-acetylated histone substrate, HDAC4; format: biochemical
T1 construct: FLAG; made in house; host or cells: 293T cells (transient transfection, anti-FLAG immunoprecipitation, FLAG peptide elution)
Description: (§1) To measure HDAC inhibition activity, an HDAC solution was prepared as described below. 1×10^7 of 293T cells were plated on to a 100-mm dish and, after 24 hours, transfected with vectors (1 μg) expressing human HDAC1 and HDAC4 or mouse HDAC6, using LipofectAmine 2000 reagent (Life Technologies, Inc. Gaithersburg, Md.). […] The vectors were introduced for five hours in OPTI-MEM. The medium was then replaced with Dulbecco's modified Eagle's medium (DMEM), and incubated for 19 hours. The cells were washed with PBS, suspended in lysis buffer (50 mM Tris-HCl (pH7.5), 120 mM NaCl, 5 mM EDTA, and 0.5% Nonidet P-40), and sonicated. The supernatant was collected by centrifugation and nonspecific protein was removed using Protein A/G plus agarose beads (Santa Cruz Biotechnologies, Inc.). Anti-FLAG M2 antibodies (Sigma-Aldrich, Inc.) were added to the supernatant of cells expressing HDAC1 or HDAC4. Anti-HA antibodies (clone 3F10, Roche Molecular Biochemicals) were added to the supernatant of cells expressing HDAC6. Reaction in the respective mixtures was carried out at 4° C. for one hour. The resulting reaction mixtures were independently mixed with agarose beads and further reacted at 4° C. for one hour. The agarose beads were washed three times with lysis buffer and then washed once with HD buffer (20 mM Tris-HCl (pH8.0), 150 mM NaCl, 10% glycerol, and a complete protease inhibitor cocktail (Boehringer Mannheim, Germany)). […] The HDAC reaction solution was used for determining HDAC inhibition activity as shown below.
(§2) In vitro HDAC inhibition activity was evaluated as follows: A test compound was dissolved in DMSO and adjusted to 10 mM. This was used as an inhibitor stock solution. […] These reactions were stopped by adding 10 μl HCl. The [^3H] acetic acid excised by the enzyme reaction was extracted with ethyl acetate and subjected to radioactive dose measurement. As a negative control, the same procedure was carried out in which no inhibitor was added to the reaction system. The inhibition activity was expressed as a 50% inhibition concentration (“IC50 (nM)”) of the HDAC activity in the negative control (Tables 1 to 4).

human HDAC1 = target: T2, human HDAC1 (Homo sapiens, UniProt Q13547); assay: In vitro HDAC inhibition activity, [3H]-acetylated histone substrate, HDAC1; format: biochemical
T2 construct: FLAG; made in house; host or cells: 293T cells (transient transfection, anti-FLAG immunoprecipitation, FLAG peptide elution)
Description: as §1, §2

mouse HDAC6 = target: T3, mouse HDAC6 (Mus musculus, UniProt Q9Z2V5); assay: In vitro HDAC inhibition activity, [3H]-acetylated histone substrate, HDAC6; format: biochemical
T3 construct: HA; made in house; host or cells: 293T cells (transient transfection, anti-HA immunoprecipitation, HA peptide elution)
T3 sequence (Q9Z2V5 1-1149): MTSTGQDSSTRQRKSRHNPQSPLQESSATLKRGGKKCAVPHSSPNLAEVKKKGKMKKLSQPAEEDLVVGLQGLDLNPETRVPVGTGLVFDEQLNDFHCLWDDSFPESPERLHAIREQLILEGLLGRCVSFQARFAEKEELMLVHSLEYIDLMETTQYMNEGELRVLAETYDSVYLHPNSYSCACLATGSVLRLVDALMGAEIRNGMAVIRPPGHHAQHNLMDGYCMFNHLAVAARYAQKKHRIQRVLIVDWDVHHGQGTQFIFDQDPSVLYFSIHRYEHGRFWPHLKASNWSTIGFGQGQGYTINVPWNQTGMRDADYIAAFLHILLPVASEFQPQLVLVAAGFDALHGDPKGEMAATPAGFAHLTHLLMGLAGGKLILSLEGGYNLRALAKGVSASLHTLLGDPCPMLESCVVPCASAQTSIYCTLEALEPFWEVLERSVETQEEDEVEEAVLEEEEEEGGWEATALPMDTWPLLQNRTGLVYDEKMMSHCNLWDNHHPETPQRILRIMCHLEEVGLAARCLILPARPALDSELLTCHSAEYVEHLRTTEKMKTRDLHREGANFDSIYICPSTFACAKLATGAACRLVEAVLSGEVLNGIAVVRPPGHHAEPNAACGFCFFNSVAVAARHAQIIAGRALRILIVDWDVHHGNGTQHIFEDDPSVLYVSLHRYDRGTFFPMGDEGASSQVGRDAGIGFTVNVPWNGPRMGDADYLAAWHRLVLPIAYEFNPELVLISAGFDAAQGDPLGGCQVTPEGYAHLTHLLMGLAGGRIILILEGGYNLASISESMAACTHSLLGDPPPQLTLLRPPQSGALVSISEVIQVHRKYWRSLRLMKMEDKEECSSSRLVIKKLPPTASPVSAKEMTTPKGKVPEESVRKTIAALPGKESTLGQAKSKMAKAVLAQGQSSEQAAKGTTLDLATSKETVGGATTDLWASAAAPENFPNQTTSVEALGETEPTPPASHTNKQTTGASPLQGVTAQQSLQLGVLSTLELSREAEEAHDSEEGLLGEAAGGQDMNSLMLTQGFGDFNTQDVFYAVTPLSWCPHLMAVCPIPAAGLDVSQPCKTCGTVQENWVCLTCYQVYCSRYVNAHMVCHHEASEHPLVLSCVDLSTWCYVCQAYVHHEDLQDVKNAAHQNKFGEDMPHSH
Description: as §1, §2

[2] = Table 3, hybrid with DTT (/DTT)

T1 sequence (O15379 whole entry partner): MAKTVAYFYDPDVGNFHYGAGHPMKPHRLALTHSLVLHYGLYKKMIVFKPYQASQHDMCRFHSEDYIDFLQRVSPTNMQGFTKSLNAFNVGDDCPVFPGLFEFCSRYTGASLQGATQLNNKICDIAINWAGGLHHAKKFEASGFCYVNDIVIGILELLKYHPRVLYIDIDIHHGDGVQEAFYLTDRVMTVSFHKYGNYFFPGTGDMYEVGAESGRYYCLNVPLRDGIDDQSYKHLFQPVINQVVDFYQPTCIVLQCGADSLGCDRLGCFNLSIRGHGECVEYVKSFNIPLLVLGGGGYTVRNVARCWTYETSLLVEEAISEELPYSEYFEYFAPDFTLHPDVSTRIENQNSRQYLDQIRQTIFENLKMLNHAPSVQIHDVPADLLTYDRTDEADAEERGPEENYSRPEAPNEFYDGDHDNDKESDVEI
T1 sequence (P56524 whole entry): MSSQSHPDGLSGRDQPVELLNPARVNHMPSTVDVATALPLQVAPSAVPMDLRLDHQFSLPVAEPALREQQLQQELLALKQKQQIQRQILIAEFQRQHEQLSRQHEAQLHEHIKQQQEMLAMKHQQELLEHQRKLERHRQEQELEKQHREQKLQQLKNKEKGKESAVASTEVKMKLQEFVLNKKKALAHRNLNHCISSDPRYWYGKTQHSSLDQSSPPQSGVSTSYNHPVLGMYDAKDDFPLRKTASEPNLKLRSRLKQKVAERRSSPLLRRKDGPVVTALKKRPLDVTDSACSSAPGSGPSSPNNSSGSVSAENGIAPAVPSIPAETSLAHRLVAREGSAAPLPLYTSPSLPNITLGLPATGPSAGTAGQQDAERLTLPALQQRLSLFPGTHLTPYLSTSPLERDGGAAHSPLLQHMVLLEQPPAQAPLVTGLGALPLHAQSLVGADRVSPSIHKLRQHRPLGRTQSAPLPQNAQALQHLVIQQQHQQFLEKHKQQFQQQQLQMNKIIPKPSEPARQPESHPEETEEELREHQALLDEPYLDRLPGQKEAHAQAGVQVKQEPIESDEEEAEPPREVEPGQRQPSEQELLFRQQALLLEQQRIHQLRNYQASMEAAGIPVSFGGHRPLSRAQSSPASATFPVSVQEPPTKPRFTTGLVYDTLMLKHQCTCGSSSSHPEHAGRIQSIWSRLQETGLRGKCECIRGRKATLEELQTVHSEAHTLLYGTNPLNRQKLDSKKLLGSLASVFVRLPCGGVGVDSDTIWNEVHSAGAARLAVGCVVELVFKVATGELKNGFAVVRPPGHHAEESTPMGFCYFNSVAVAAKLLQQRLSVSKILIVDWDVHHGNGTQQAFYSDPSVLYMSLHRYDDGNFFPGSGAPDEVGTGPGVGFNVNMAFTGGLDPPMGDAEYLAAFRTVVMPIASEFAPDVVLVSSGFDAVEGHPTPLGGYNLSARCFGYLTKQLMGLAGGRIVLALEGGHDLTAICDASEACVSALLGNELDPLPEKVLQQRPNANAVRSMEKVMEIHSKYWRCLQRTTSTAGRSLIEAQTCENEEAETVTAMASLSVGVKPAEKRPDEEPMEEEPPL
T2 sequence (Q13547 whole entry): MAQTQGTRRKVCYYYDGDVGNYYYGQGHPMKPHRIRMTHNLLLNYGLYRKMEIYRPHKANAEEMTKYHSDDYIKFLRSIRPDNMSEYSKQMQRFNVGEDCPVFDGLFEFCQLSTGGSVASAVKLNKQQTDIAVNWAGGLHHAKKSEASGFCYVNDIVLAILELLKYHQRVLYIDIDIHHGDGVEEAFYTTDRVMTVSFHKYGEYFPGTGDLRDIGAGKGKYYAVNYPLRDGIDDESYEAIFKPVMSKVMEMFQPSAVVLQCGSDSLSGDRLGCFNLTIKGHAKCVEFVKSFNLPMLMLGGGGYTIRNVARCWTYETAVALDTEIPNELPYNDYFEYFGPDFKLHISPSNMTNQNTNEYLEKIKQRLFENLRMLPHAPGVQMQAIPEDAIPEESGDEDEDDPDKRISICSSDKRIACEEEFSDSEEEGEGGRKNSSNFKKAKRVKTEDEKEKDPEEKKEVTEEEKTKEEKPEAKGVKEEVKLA

| Compound | EC50 ([1]; Table 2, homodimer) | IC50 (human HDAC4; Table 2, homodimer) | IC50 (human HDAC1; Table 2, homodimer) | IC50 (mouse HDAC6; Table 2, homodimer) | EC50 [1, 2] | EC50 ([1]; Table 3, hybrid, without DTT) | IC50 (human HDAC4; [2]) | IC50 (human HDAC4; Table 3, hybrid, without DTT) | IC50 (human HDAC1; [2]) | IC50 (human HDAC1; Table 3, hybrid, without DTT) | IC50 (mouse HDAC6; [2]) | IC50 (mouse HDAC6; Table 3, hybrid, without DTT) |
| --- | --- | --- | --- | --- | --- | --- | --- | --- | --- | --- | --- | --- |
| CC[C@H](C)[C@@H]1NC(=O)[C@@H](Cc2ccc(OC)cc2)NC(=O)[C@H](CCCCCSSCCCCC[C@@H]2NC(=O)[C@@H]3CCCCN3C(=O)[C@H]([C@@H](C)CC)NC(=O)[C@@H](Cc3ccc(OC)cc3)NC2=O)NC(=O)[C@@H]2CCCCN2C1=O [SCOP 298, cyclo(-L-Am7(-)-D-Tyr(Me)-L-Ile-L-Pip-] (I: cyclo([hNle(7-SH)][dY](Me)I[Pip]) / II: cyclo([hNle(7-SH)][dY](Me)I[Pip]); disulfide I:1-II:1) | 5.8 µM | 33.7 nM | 114 nM | 418000 nM |  |  |  |  |  |  |  |  |
| CC[C@H](C)[C@@H]1NC(=O)[C@@H](Cc2ccc(OC)cc2)NC(=O)[C@H](CCCCCSSCCCCC[C@@H]2NC(=O)[C@H]3CCCCN3C(=O)[C@H]([C@@H](C)CC)NC(=O)[C@@H](Cc3ccc(OC)cc3)NC2=O)NC(=O)[C@H]2CCCCN2C1=O [SCOP 300, cyclo(-L-Am7(-)-D-Tyr(Me)-L-Ile-D-Pip-] (I: cyclo([hNle(7-SH)][dY](Me)I[dPip]) / II: cyclo([hNle(7-SH)][dY](Me)I[dPip]); disulfide I:1-II:1) | 7.37 µM | 36.2 nM | 61.1 nM | 255000 nM |  |  |  |  |  |  |  |  |
| CC[C@H](C)[C@@H]1NC(=O)[C@@H](Cc2ccc(OC)cc2)NC(=O)[C@H](CCCCSSCCCC[C@@H]2NC(=O)[C@H]3CCCN3C(=O)[C@H]([C@@H](C)CC)NC(=O)[C@@H](Cc3ccc(OC)cc3)NC2=O)NC(=O)[C@H]2CCCN2C1=O [SCOP 302, cyclo(-L-Am6(-)-D-Tyr(Me)-L-Ile-D-Pro-] | > 100 µM | > 500000 nM | 7200 nM | > 500000 nM |  |  |  |  |  |  |  |  |
| CC[C@H](C)[C@@H]1NC(=O)[C@@H](Cc2ccc(OC)cc2)NC(=O)[C@H](CCCCCCSSCCCCCC[C@@H]2NC(=O)[C@H]3CCCN3C(=O)[C@H]([C@@H](C)CC)NC(=O)[C@@H](Cc3ccc(OC)cc3)NC2=O)NC(=O)[C@H]2CCCN2C1=O [SCOP 306, cyclo(-L-Am8(-)-D-Tyr(Me)-L-Ile-D-Pro-] |  | 319 nM | 153 nM | 1.32e+06 nM |  |  |  |  |  |  |  |  |
| CC[C@H](C)[C@@H]1NC(=O)[C@@H](Cc2ccc(OC)cc2)NC(=O)[C@H](CCCCCCCSSCCCCCCC[C@@H]2NC(=O)[C@H]3CCCN3C(=O)[C@H]([C@@H](C)CC)NC(=O)[C@@H](Cc3ccc(OC)cc3)NC2=O)NC(=O)[C@H]2CCCN2C1=O [SCOP 308, cyclo(-L-Am9(-)-D-Tyr(Me)-L-Ile-D-Pro-] | 235 µM | 505 nM | 983 nM | 745000 nM |  |  |  |  |  |  |  |  |
| CC[C@H](C)[C@@H]1NC(=O)[C@@H](Cc2ccc(OC)cc2)NC(=O)[C@H](CCCCCSSc2ccc([N+](=O)[O-])c(C(=O)N(C)C)c2)NC(=O)[C@H]2CCCN2C1=O [SCOP 403, cyclo(-L-Am7(SEll)-D-Tyr(Me)-L-Ile-D-Pro-)] (cyclo([hNle(7-SH)](X1)[dY](Me)I[dP])) |  |  |  |  | 0.748 µM | 1.8 µM | 1.53 nM | 18.9 nM | 1.15 nM | 21.5 nM | 4730 nM | 6080 nM |
| CC[C@H](C)[C@@H]1NC(=O)[C@@H](Cc2ccc(OC)cc2)NC(=O)[C@H](CCCCCSSCCO)NC(=O)[C@H]2CCCN2C1=O [SCOP 404, cyclo(-L-Am7(SMEt)-D-Tyr(Me)-L-Ile-D-Pro-)] |  |  |  |  | 0.754 µM | 1.36 µM | 13 nM | 355 nM | 2.44 nM | 217 nM | 15400 nM | 201000 nM |
| cyclo(-L-Am7(S2Py)-D-Tyr(Me)-L-Ile-D-Pro-) [SCOP 401] |  |  |  |  | 0.815 µM | 1.36 µM |  |  |  |  |  |  |
